Measured values reported in patent US4500544A, “Ascochlorin derivatives, and pharmaceutical composition containing the same” (Chugai Seiyaku Kabushiki Kaisha, priority 1981, dated 1985).

What was measured:
[1] = plasma glucose and cholesterol in normal mice fed the compounds (Example 19); format: in vivo, ddY male mice; settings: 0.1% in diet, one week, n=10
Procedure: Five-week-old ddY male mice (n=10) were given for one week a diet (CE-2 from Nippon Crea Co., Ltd.) containing 0.1% of the sample compounds of the present invention indicated in Table 1. Blood was then withdrawn from the heart and the glucose and cholesterol levels in plasma were measured.

[2] = serum lipid and glucose in normal mice fed the compounds (Example 25); format: in vivo, ddY male mice; settings: for free fatty acid in serum / neutral fat in serum / total cholesterol in serum / serum glucose / lipid level in serum (in words): 0.05% in diet, one week; for free fatty acid in serum / neutral fat in serum / total cholesterol in serum / serum glucose: n=8; for free fatty acid in serum: control 25.3 ± 1.62; for neutral fat in serum: control 134.7 ± 8.6; for total cholesterol in serum: control 135.9 ± 4.8; for serum glucose: control 293.0 ± 13.3; for free fatty acid in serum, change / neutral fat in serum, change / serum glucose, change / total cholesterol in serum, change: vs control
Procedure: Five-week-old ddY male mice were given for one week a diet (CE-2 from Nippon Crea Co., Ltd.) containing 0.05% of the compounds of the present invention indicated in Table 7. On the 7th day, the mice were sacrificed and the levels of lipid and glucose in their serum were measured.

CCOC(=O)CCCOc1c(Cl)c(C)c(C=O)c(O)c1C/C=C(C)/C=C/C1(C)C(C)CCC(=O)C1C (stereo not drawn) [Example 8, 4-O-(3-ethoxycarbonyl)propyl ester of ascochlorin]
total cholesterol in plasma ([1]; control 135.9 ± 4.8): 115.0 ± 6.6 mg/dL
plasma glucose ([1]; control 271.6 ± 0.4): 255.5 ± 17.0 mg/dL

CCN(CC)C(=O)Oc1c(Cl)c(C)c(C=O)c(O)c1C/C=C(C)/C=C/C1(C)C(C)CCC(=O)C1C (stereo not drawn) [Example 13, 4-O--diethylcarbamoyl ascochlorin]
free fatty acid in serum [2]: 26.4 ± 0.58 mg/dL
neutral fat in serum [2]: 110.2 ± 16.4 mg/dL
total cholesterol in serum [2]: 121.2 ± 5.0 mg/dL
serum glucose [2]: 215.2 ± 5.7 mg/dL
free fatty acid in serum, change [2]: +4.3%
neutral fat in serum, change [2]: -18.2%
serum glucose, change [2]: -26.6%
total cholesterol in serum, change [2]: -10.8%

CC(/C=C/C1(C)C(C)CCC(=O)C1C)=C\Cc1c(O)c(C=O)c(C)c(Cl)c1OC(=O)COc1ccc(Cl)cc1 (stereo not drawn) [Example 14, 4-O-(p-chlorophenoxy)acetyl ascochlorin]
lipid level in serum (in words) [2]: could also reduce the lipid level in serum
free fatty acid in serum [2]: 24.9 ± 0.48 mg/dL
neutral fat in serum [2]: 99.4 ± 9.4 mg/dL
total cholesterol in serum [2]: 115.6 ± 9.8 mg/dL
serum glucose [2]: 209 ± 8.9 mg/dL
free fatty acid in serum, change [2]: -1.6%
neutral fat in serum, change [2]: -26.2%
serum glucose, change [2]: -28.7%
total cholesterol in serum, change [2]: -14.8%

COc1ccc(C(=O)Oc2c(Cl)c(C)c(C=O)c(O)c2C/C=C(C)/C=C/C2(C)C(C)CCC(=O)C2C)cc1 (stereo not drawn) [Example 15, 4-O--(p-methoxybenzoyl) ascochlorin]
free fatty acid in serum [2]: 25.2 ± 1.89 mg/dL
neutral fat in serum [2]: 141.4 ± 21.3 mg/dL
total cholesterol in serum [2]: 137.9 ± 4.1 mg/dL
serum glucose [2]: 199.3 ± 8.6 mg/dL
free fatty acid in serum, change [2]: -0.4%
neutral fat in serum, change [2]: +4.9%
serum glucose, change [2]: -31.9%
total cholesterol in serum, change [2]: +1.4%

COC(=O)c1ccc(C(=O)Oc2c(Cl)c(C)c(C=O)c(O)c2C/C=C(C)/C=C/C2(C)C(C)CCC(=O)C2C)cc1 (stereo not drawn) [Example 16, 4-O--(p-methoxycarbonyl)-benzoyl ascochlorin]
free fatty acid in serum [2]: 21.8 ± 0.69 mg/dL
neutral fat in serum [2]: 136.3 ± 8.1 mg/dL
total cholesterol in serum [2]: 129.6 ± 3.9 mg/dL
serum glucose [2]: 229.9 ± 17.0 mg/dL
free fatty acid in serum, change [2]: -15.9%
neutral fat in serum, change [2]: +1.2%
serum glucose, change [2]: -21.5%
total cholesterol in serum, change [2]: -4.6%

CC(/C=C/C1(C)C(C)CCC(=O)C1C)=C\Cc1c(O)c(C=O)c(C)c(Cl)c1OC(=O)c1ccncc1 (stereo not drawn) [Example 17, 4-O-isonicotinoyl ascochlorin]
lipid level in serum (in words) [2]: could also reduce the lipid level in serum
free fatty acid in serum [2]: 20.3 ± 0.77 mg/dL
neutral fat in serum [2]: 116.1 ± 13.8 mg/dL
total cholesterol in serum [2]: 113.5 ± 7.8 mg/dL
serum glucose [2]: 191.6 ± 13.2 mg/dL
free fatty acid in serum, change [2]: -19.8%
serum glucose, change [2]: -34.6%
total cholesterol in serum, change [2]: -16.5%

CC(/C=C/C1(C)C(C)CCC(=O)C1C)=C\Cc1c(O)c(C=O)c(C)c(Cl)c1OC(=O)c1ccccn1 (stereo not drawn) [Example 18, 4-O--picolinyl ascochlorin]
free fatty acid in serum [2]: 23.5 ± 3.13 mg/dL
neutral fat in serum [2]: 117.6 ± 6.8 mg/dL
total cholesterol in serum [2]: 138.4 ± 3.1 mg/dL
serum glucose [2]: 247.7 ± 9.0 mg/dL
free fatty acid in serum, change [2]: -7.1%
neutral fat in serum, change [2]: -12.7%
serum glucose, change [2]: -15.5%
total cholesterol in serum, change [2]: +1.8%
